How the values were obtained:
[1] = tested on: HIV-1 (NL4.3 strain) carrying the GFP reporter gene (NL4.3-GFP); assay: HIV-1 NL4.3-GFP infection of SupT1 cells; type: cell-based; conditions: Human immunodeficiency virus 1, SUP-T1, read-out: Inhibitory activity (EC50) of HIV-1 (NL4.3 strain) carrying the GFP reporter gene
Description: 6. Inhibitory Activity of HIV-1 (NL4.3 Strain) Carrying the GFP Reporter Gene (NL4.3-GFP) in the SuPT1 Cell Line.
The evaluation was done by RetroVirox Inc. (San Diego, Calif., USA). SupT1 cells were infected with the HIV NL4.3 strain carrying the green fluorescent protein gene (NL4.3-GFP). The virus sample was produced by transfection of 293T cells with proviral DNA. The sample was frozen 48 hours after transfection and stored until use. To enhance the efficiency of infection, a suspension of SupT1 cells was precipitated from the infectious mixture by centrifugation. Test substances were added to the cells immediately before adding the virus. After 2 hours of incubation, the infectious mixture was replaced with a fresh culture medium containing test samples. The effectiveness of the infection was determined after 45 hours by counting the percentage of fluorescent cells in comparison with uninfected cell cultures. The cytotoxicity of the test compounds was determined in parallel on the same, but not infected, SupT1 cell line using the XTT reagent. Serial tenfold dilutions of the samples (starting from 10 μM when determining antiviral activity or from 100 μM for determining cytotoxicity). As a negative control, 0.1% DMSO was used. The values of EC50 were calculated. The quality of the tests was determined using the following controls: signal-to-noise ratio, integrase inhibitor raltegravir (1 μM), and test reproducibility.

human plasma proteins = assay: Plasma protein binding by equilibrium dialysis, human; type: in vitro ADME; conditions: for Binding class / Extraction / Permeability: human; for Bound: human plasma diluted to 50%, 37° C.; for Bound / Extraction / Permeability: 1 μM, 4 h; for Permeability: dialysis membrane
Description: (§1) To assess protein binding, pooled samples of blood plasma diluted with phosphate buffer up to 50% were used. The test was carried out in a teflon coated 48-well dialysis plate. Each well contained two separate chambers separated by a vertical semipermeable dialysis membrane with 8 kDa pores. A plasma sample with 1 μM of the test compound was placed into one of the chambers, and a buffer solution (pH=7.2) was placed in the other chamber. Over time, at 37° C. while rocking, passive diffusion of the unbound compound occurred and after 4 hours the equilibrium state between the chambers with plasma and the buffer solution was reached. The amount of free fraction was evaluated by HPLC-MS/MS following precipitation of the proteins by acetonitrile. Also, the study involved evaluation of stability of the substance during the 4-hour period and passive permeability through the dialysis membrane in the buffer by mass balance. Warfarin was used as the control compound. The results are presented in Table 4, from which it follows that the compounds of general formula 1.1 have a high degree of binding to human and rat plasma proteins.

rat plasma proteins = assay: Plasma protein binding by equilibrium dialysis, rat; type: in vitro ADME; conditions: for Binding class / Extraction / Permeability: rat; for Bound: rat plasma diluted to 50%, 37° C.; for Bound / Extraction / Permeability: 1 μM, 4 h; for Permeability: dialysis membrane
Description: as §1

[2] = Pharmacokinetics in rat plasma, IV and oral; type: in vivo, male Sprague-Dawley rats
Description: The research was carried out on male Sprague-Dawley rats obtained from Charles River Laboratories (Germany). […] The age of the animals at the time of administration was 8-10 weeks. The animals were pre-catheterized so that all blood samples during the study of each substance could be taken from the same animals. Each substance was tested in 3 animals at each route of administration. The solution of test substances with a concentration of 0.2 mg/ml in 10% DMSO/10% Solutol/80% 0.05M N-methylglucamine was administered to rats intravenously in the tail vein at a dose of 1 mg/kg. Blood samples were collected at 5, 15, 30 min, 1, 2, 4, 8, and 24 hours after administration. Intragastric administration involved gavage using a solution with a concentration of 0.5 mg/ml in 0.5% methylcellulose at a dose of 5 mg/kg. Blood samples were collected at 15, 30 min, 1, 2, 4, 8, and 24 hours after administration. Blood (0.2 ml) was collected in polypropylene tubes containing 20 μl of 5% NaEDTA. Blood plasma was separated by centrifugation at 1500×g for 10 min and stored until testing at a temperature of −80° C. A pure acetonitrile-water (1:1) mixture (5 μl) was added to 45 μl of test samples. The samples were vortexed thoroughly for 10 seconds. Tolbutamide (100 μl) chilled to +4° C. (200 ng/ml in MeCN) was added to the samples and the mixture was vortexed. The samples were precipitated on ice at +4° C. for 15 minutes and then centrifuged at 2700 g for 10 min at +4° C. Supernatants (100 μl each) were transferred to a blank plate for HPLC/MS/MS analysis. The HPLC/MS/MS analysis was performed using an Agilent 1290 Infinity system coupled to an AB Sciex QTrap 6500 mass spectrometer. Pharmacokinetic analysis of plasma concentration vs time data was performed by a model-independent method using the Phoenix™ WinNonlin® 6.3 software (Pharsight Corp.). […]

SMILES | EC50 [1] | Binding class (human plasma proteins) | Bound (human plasma proteins) | Extraction (human plasma proteins) | Permeability (human plasma proteins) | Binding class (rat plasma proteins) | Bound (rat plasma proteins) | Extraction (rat plasma proteins) | Permeability (rat plasma proteins) | other results
C[C@H]1CO[C@@H]2Cn3cc(C(=O)NCc4ncc(F)cc4F)c(=O)c(O)c3C(=O)N12 [Compound 1.1.17, (3S,11aR)-6-hydroxy-N-[(3,5-difluoropyridin-2-yl)methyl]-3-methyl-5,7-dioxo-2,3,5,7,11,11a-hexahydro[1,3]oxazolo[3,2-a]pyrido[1,2-d]pyrazine-8-carboxamide] | 1.5 nM | High | 98.8% | 94.6% | 84.8% | High | 99.9% | 108% | 90.9% | –
C[C@H]1CO[C@@H]2Cn3cc(C(=O)NCc4ccc(F)nc4F)c(=O)c(O)c3C(=O)N12 [Compound 1.1.19, (3S,11aR)-6-hydroxy-N-[(2,6-difluoropyridin-3-yl)methyl]-3-methyl-5,7-dioxo-2,3,5,7,11,11a-hexahydro[1,3]oxazolo[3,2-a]pyrido[1,2-d]pyrazine-8-carboxamide] | 1.9 nM | High | 99.0% | 95.0% | 84.0% | High | 98.9% | 94.5% | 83.8% | concentration at 8 h ([2]; male, Sprague-Dawley, rat plasma, oral 5 mg/kg, 8 h, read-out: C8 h): 7910 ng/mL; concentration at 24 h ([2]; male, Sprague-Dawley, rat plasma, oral 5 mg/kg, 24 h, read-out: C24 h): 4440 ng/mL; AUCINF ([2]; rat plasma, IV 1 mg/kg): 367.627 µg·h/mL; AUClast ([2]; rat plasma, IV 1 mg/kg): 202.189 µg·h/mL; Cmax ([2]; rat plasma, IV 1 mg/kg): 18550 ng/mL; MRTlast ([2]; rat plasma, IV 1 mg/kg): 9.46 h; T1/2 ([2]; rat plasma, IV 1 mg/kg): 21.2 h; Tmax ([2]; rat plasma, IV 1 mg/kg): 0.08 h; kel ([2]; rat plasma, IV 1 mg/kg): 0.03 h⁻¹; AUCINF ([2]; rat plasma, oral 5 mg/kg): 282.07 µg·h/mL; AUClast ([2]; rat plasma, oral 5 mg/kg): 176.506 µg·h/mL; Cmax ([2]; rat plasma, oral 5 mg/kg): 11488 ng/mL; MRTlast ([2]; rat plasma, oral 5 mg/kg): 9.42 h; T1/2 ([2]; rat plasma, oral 5 mg/kg): 16.5 h; Tmax ([2]; rat plasma, oral 5 mg/kg): 3 h; kel ([2]; rat plasma, oral 5 mg/kg): 0.04 h⁻¹; F (bioavailability) ([2]; rat, oral 5 mg/kg vs IV 1 mg/kg, F=(AUClast PO/5·AUClast IV)·100): 17.5%

Reference: US20230020329A1, “Annelated 9-hydroxy-1,8-dioxo-1,3,4,8-tetrahydro-2H-pyrido[1,2-a]pyrazine-7-carboxamides as HIV integrase inhibitors, methods of preparation and application thereof” (priority 2019, published 2023)
